In ChEMBL document CHEMBL5506038, “Discovery of LC-MI-3: A Potent and Orally Bioavailable Degrader of Interleukin-1 Receptor-Associated Kinase 4 for the Treatment of Inflammatory Diseases” (J Med Chem, 2024):
Activity calls are given as the source filed them. No cut-off for these calls is given here.

What was measured:
Mus musculus [1] = experiment: Anti-inflammatory activity in imiquimod-induced C57BL/6 mouse psoriasis model assessed as reduction in dermal inflammatory cell infiltration at 20 mg/kg, po administered twice daily measured for 6 days by H and E staining based analysis; type: functional, organism-based; details: time 6.0 day
RAW264.7 [2] = experiment: Effect on TNFalpha mRNA expression in LPS-induced mouse RAW264.7 cells at 1 uM pretreated with compound for 1 hr followed by LPS-induction and measured after 6 hrs by RT-PCR analysis; type: functional, cell-based; details: time 7.0 hrs
RAW264.7 [3] = experiment: Effect on IRAK4 mRNA level in mouse RAW264.7 cells by RT-qPCR analysis; type: functional, cell-based
Mus musculus [4] = experiment: Anti-inflammatory activity in imiquimod-induced C57BL/6 mouse psoriasis model assessed as […] in skin thickness at 20 mg/kg, po administered twice daily measured on day 7 by H and E staining based analysis; type: functional, organism-based; details: time 7.0 day
[5] = Clearance in Sprague-Dawley rat at 2 mg/kg, iv by LC-MS/MS analysis; type: ADME, organism-based; details: in vivo
[6] = target: MAP kinase p38 (Mus musculus) (UniProt P47811+O08911+Q9WUI1+Q9Z1B7); experiment: Inhibition of MAPK phosphorylation in LPS-induced mouse RAW264.7 cells at 1 uM pretreated with compound for 1 hr followed by LPS-induction and measured after 2 hrs by Western blot analysis; type: cell-based; details: time 3.0 hrs
[7] = AUC (0 to infinity) in Sprague-Dawley rat at 2 mg/kg, iv by LC-MS/MS analysis; type: ADME, organism-based; details: in vivo
[8] = Tmax in Sprague-Dawley rat at 2 mg/kg, iv by LC-MS/MS analysis; type: ADME, organism-based; details: in vivo
Mus musculus [9] = experiment: Protection against LPS-induced sepsis in C57BL/6 mouse model assessed as improvement in survival rate at 20 mg/kg, IG measured at 12 hrs; type: functional, organism-based
[10] = target: T1, Protein cereblon/Interleukin-1 receptor-associated kinase 4 (Mus musculus) (UniProt Q8C7D2+Q8R4K2); experiment: PROTAC activity at IRAK4/CRBN in mouse RAW264.7 cells assessed as induction of IRAK4 degradation at 25 to 2500 nM incubated for 12 hrs by Western blot analysis; type: cell-based; details: dose 25-2500 nM
[11] = AUC (0 to infinity) in Sprague-Dawley rat at 20 mg/kg, po by LC-MS/MS analysis; type: ADME, organism-based; details: in vivo
[12] = target: T2, Interleukin-1 receptor-associated kinase 4 (Homo sapiens) (UniProt Q9NWZ3); experiment: Inhibition of IRAK4 in human BMDM cells assessed as decrease in TLR4 endocytosis by flow cytometry analysis; type: cell-based
T2 sequence (whole entry): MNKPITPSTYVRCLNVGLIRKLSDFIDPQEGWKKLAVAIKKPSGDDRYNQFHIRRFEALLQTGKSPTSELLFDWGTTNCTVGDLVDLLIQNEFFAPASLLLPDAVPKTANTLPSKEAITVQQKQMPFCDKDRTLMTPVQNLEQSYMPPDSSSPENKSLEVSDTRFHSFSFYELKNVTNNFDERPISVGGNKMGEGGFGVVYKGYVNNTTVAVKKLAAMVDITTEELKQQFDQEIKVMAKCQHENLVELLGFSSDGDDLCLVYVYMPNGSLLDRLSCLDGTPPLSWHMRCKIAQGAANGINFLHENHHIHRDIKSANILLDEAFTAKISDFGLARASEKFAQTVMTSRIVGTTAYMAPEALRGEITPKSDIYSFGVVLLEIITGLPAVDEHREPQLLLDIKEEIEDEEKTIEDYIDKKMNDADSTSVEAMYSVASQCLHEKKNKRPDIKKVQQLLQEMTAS

[13] = Half life in Sprague-Dawley rat at 2 mg/kg, iv by LC-MS/MS analysis; type: ADME, organism-based; details: in vivo
Mus musculus [14] = experiment: Anti-inflammatory activity against LPS-induced acute […] injury C57BL/6 mouse model assessed as reduction in F4/80-positive macrophage in lung at 20 mg/kg, IG pretreated with compound for 12 hrs followed by LPS-induction and measured after 6 hrs by Immunohistochemical analysis; type: functional, organism-based; details: time 18.0 hrs
RAW264.7 [15] = experiment: Effect on IL-6 mRNA expression in LPS-induced mouse RAW264.7 cells at 1 uM pretreated with compound for 1 hr followed by LPS-induction and measured after 6 hrs by RT-PCR analysis; type: functional, cell-based; details: time 7.0 hrs
Mus musculus [16] = experiment: Anti-inflammatory activity against LPS-induced acute […] injury C57BL/6 mouse model assessed as reduction in IL-6 level in BALF at 20 mg/kg, IG pretreated with compound for 12 hrs followed by LPS-induction and measured after 6 hrs by ELISA analysis; type: functional, organism-based; details: time 18.0 hrs
RAW264.7 [17] = experiment: Protection against Escherichia coli-induced sepsis in mouse RAW264.7 cells assessed as reduction in IL-6 level at 1 uM pretreated with compound for 6 hrs followed by Escherichia coli-induction and measured after 6 hrs by RT-PCR analysis; type: functional, cell-based; details: time 12.0 hrs
Mus musculus [18] = experiment: Anti-inflammatory activity in imiquimod-induced C57BL/6 mouse psoriasis model assessed as reduction in epidermal acanthosis at 20 mg/kg, po administered twice daily measured for 6 days by H and E staining based analysis; type: functional, organism-based; details: time 6.0 day
[19] = target: Serine/threonine-protein kinase RIO1 (Homo sapiens) (UniProt Q9BRS2); experiment: Induction of RIOK1 degradation in human Caco-2 cells upto 10000 nM incubated for 12 hrs by Western blotting analysis; type: cell-based
[20] = Cmax in Sprague-Dawley rat at 2 mg/kg, iv by LC-MS/MS analysis; type: ADME, organism-based; details: in vivo
RAW264.7 [21] = experiment: Protection against Escherichia coli-induced sepsis in mouse RAW264.7 cells assessed as reduction in TNF-alpha level at 1 uM pretreated with compound for 6 hrs followed by Escherichia coli-induction and measured after 6 hrs by RT-PCR analysis; type: functional, cell-based; details: time 12.0 hrs
Mus musculus [22] = experiment: Anti-inflammatory activity in imiquimod-induced C57BL/6 mouse psoriasis model assessed as improvement in erythema score at 20 mg/kg, po administered twice daily measured for 6 days; type: functional, organism-based; details: time 6.0 day
Mus musculus [23] = experiment: Anti-inflammatory activity against LPS-induced acute […] injury C57BL/6 mouse model assessed as reduction in TNF-alpha level in BALF at 20 mg/kg, IG pretreated with compound for 12 hrs followed by LPS-induction and measured after 6 hrs by ELISA analysis; type: functional, organism-based; details: time 18.0 hrs
[24] = target: T1, Protein cereblon/Interleukin-1 receptor-associated kinase 4 (Mus musculus); experiment: PROTAC activity at IRAK4/CRBN in mouse BaF3 cells assessed as reduction in IRAK4 level at 100 nM incubated for 12 hrs by Western blot analysis relative to control; type: cell-based; parameters: scale not given: the % may be the effect or the level left
RAW264.7 [25] = experiment: Activation of NF-kappaB pathway in LPS-induced mouse RAW264.7 cells expressing EGFP at 5 uM pretreated with compound for 1 hr followed by LPS-induction and measured after 6 hrs by flow cytometry analysis; type: cell-based; details: filed as activator, time 7.0 hrs
[26] = target: T1, Protein cereblon/Interleukin-1 receptor-associated kinase 4 (Mus musculus); experiment: PROTAC activity at IRAK4/CRBN in mouse RAW264.7 cells assessed as reduction in IRAK4 level at 100 nM incubated for 12 hrs by Western blot analysis relative to control; type: cell-based
Mus musculus [27] = experiment: Anti-inflammatory activity against LPS-induced acute […] injury C57BL/6 mouse model assessed as reduction in TNF-alpha level in lung at 20 mg/kg, IG pretreated with compound for 12 hrs followed by LPS-induction and measured after 6 hrs by RT-PCR analysis; type: functional, organism-based; details: time 18.0 hrs
[28] = target: T1, Protein cereblon/Interleukin-1 receptor-associated kinase 4 (Mus musculus); experiment: PROTAC activity at IRAK4/CRBN in mouse RAW264.7 cells assessed as reduction in IRAK4 level at 200 nM incubated for 12 hrs by proteomic analysis; type: cell-based

T1 sequence (Q8C7D2 whole entry, looked up): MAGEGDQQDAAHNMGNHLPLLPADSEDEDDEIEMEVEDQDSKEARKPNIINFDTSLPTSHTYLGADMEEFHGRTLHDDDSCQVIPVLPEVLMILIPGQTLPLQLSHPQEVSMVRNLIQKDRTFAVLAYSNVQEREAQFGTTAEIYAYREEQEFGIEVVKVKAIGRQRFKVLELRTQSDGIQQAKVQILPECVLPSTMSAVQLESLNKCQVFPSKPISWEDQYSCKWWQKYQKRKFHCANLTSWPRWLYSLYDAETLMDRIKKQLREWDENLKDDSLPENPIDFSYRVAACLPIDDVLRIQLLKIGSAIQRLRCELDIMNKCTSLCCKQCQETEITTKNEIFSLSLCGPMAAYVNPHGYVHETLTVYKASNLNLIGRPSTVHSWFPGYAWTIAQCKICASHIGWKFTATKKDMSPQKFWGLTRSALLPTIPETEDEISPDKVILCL
T1 sequence (Q8R4K2 whole entry, looked up): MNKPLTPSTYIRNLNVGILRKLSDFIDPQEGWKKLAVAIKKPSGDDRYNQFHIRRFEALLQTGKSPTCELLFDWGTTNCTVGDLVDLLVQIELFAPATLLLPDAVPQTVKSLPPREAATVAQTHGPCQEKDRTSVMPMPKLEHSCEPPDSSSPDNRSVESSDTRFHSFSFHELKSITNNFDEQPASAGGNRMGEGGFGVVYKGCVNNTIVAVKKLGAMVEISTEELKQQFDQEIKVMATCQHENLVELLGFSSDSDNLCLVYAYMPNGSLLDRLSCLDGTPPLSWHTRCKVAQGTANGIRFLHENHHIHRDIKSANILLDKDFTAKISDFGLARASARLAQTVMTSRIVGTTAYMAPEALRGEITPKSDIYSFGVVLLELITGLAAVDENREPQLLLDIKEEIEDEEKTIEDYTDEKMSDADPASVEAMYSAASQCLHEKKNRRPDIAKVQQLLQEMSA
Sequence of Serine/threonine-protein kinase RIO1 (Homo sapiens) (Q9BRS2 whole entry): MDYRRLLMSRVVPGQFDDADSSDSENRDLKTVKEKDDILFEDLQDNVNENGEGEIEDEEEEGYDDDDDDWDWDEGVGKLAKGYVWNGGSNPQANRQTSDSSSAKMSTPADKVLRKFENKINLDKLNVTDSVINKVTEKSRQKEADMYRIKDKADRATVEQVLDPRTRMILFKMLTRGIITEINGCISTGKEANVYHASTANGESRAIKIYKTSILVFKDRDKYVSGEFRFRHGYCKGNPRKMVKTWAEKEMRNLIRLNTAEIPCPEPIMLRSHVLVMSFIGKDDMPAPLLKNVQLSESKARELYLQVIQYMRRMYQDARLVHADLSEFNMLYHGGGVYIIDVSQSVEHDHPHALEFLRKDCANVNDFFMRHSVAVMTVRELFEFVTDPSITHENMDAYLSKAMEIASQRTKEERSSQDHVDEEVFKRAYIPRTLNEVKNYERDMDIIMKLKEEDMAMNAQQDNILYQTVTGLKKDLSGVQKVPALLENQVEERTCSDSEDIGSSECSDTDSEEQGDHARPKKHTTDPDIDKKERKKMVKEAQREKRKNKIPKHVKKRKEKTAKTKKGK

## COc1cc(N2CCN(C(=O)CCOCC#Cc3ccc4c(c3)C(=O)N(C3CCC(=O)NC3=O)C4=O)CC2)ccc1NC(=O)c1cccc(-c2ccn[nH]2)n1 (stereo not drawn)
Mus musculus [1]
  Activity: Active
RAW264.7 [2]
  Activity: Active
RAW264.7 [3]
  Activity: inactive
Mus musculus [4]
  Activity: Active
[5]
  clearance: 25.6 mL/min/kg
[6]
  inhibition: Active
[7]
  AUC(0-inf): 1330 ng·h/mL
[8]
  Tmax: 4.98 min
Mus musculus [9]
  Activity: Active
[10]
  Activity: inactive
[11]
  AUC(0-inf): 1080 ng·h/mL
[12]
  inhibition: Active
[13]
  half-life: 29.2 min
Mus musculus [14]
  Activity: Active
RAW264.7 [15]
  Activity: Active
Mus musculus [16]
  Activity: Active
RAW264.7 [17]
  Activity: Active
Mus musculus [18]
  Activity: Active
[19]
  Activity: inactive
[20]
  Cmax: 2920 ng/mL
RAW264.7 [21]
  Activity: Active
Mus musculus [22]
  Activity: Active
Mus musculus [23]
  Activity: Active
[24]
  Activity: 15%
RAW264.7 [25]
  Activity: Active
[26]
  Emax: 85%
Mus musculus [27]
  Activity: Active
[28]
  Activity: Active
